Assays:
[1] = system: A549 cells; assay: Growth inhibition of siRNA-transfected A549 cells, SYBR Green I DNA content; assay type: cell-based, human; conditions: 10 nM siRNA, DNA content 96 hours after transfection; for Growth Inhibition in A549 cells by 10 nM siRNA: transporter gene targets
Outline: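 A549 cells reverse-transfected with 10 nM Stealth siRNAs via Lipofectamine RNAiMAX, seeded at 5×10^3 cells/cm^2 in RPMI 1640/10% FCS; non-specific siRNA control. DNA content read 96 h post-transfection by SYBR Green I fluorescence (ex 485/em 535 nm) after freeze-thaw and Triton X-100 lysis; mean of three wells.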

[2] = system: target transcript mRNA in A549 cells; assay: Level of mRNA of target transcript in A549 cells by quantitative RT-PCR (Tables 12 and 13); assay type: cell-based, human; conditions: 24 h post-transfection; for mRNA knockdown of transporter gene target transcript, 0.1 nM: 0.1 nM siRNA; for mRNA knockdown of transporter gene target transcript, 1 nM: 1 nM siRNA
Outline: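 A549 cells were transfected with siRNA at 0.1, 1.0 and 10 nM. RNA was extracted 24 h later, reverse-transcribed with random primers, and target mRNA quantified by SYBR Green qRT-PCR. Values were normalised to housekeeping genes HPRT and Lamin.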

Row | Substance | Growth Inhibition in A549 cells by 10 nM siRNA [1] | mRNA knockdown of transporter gene target transcript, 0.1 nM [2] | mRNA knockdown of transporter gene target transcript, 1 nM [2] | Growth Inhibition in A549 cells [1]
1 | SEQ ID NO: 4889: siRNA targeting SLC1A5 (ASCT2) (chain 1 TTGAAGAAGCGGATAAGCAGCTCCC; chain 2 UUGAAGAAGCGGAUAAGCAGCUCCC; Antisense strand given in DNA and RNA notation, chemistry not given here; one strand in two spellings) | − (no growth inhibition) | ++ (70-90% mRNA knockdown) | ++ (70-90% mRNA knockdown) | 
2 | SEQ ID NO: 4890: siRNA targeting SLC1A5 (ASCT2) (chain 1 TTTACGAAGTCCAAGGACTGCTGGC; chain 2 UUUACGAAGUCCAAGGACUGCUGGC; Antisense strand given in DNA and RNA notation, chemistry not given here; one strand in two spellings) | − (no growth inhibition) | ++ (70-90% mRNA knockdown) | ++ (70-90% mRNA knockdown) | 
3 | SEQ ID NO: 4891: siRNA targeting SLC1A5 (ASCT2) (chain 1 TCTACATTGAGGACGGTACAGGACC; chain 2 UCUACAUUGAGGACGGUACAGGACC; Antisense strand given in DNA and RNA notation, chemistry not given here; one strand in two spellings) | − (no growth inhibition) | ++ (70-90% mRNA knockdown) | ++ (70-90% mRNA knockdown) | 
4 | SEQ ID NO: 4892: siRNA targeting SLC2A1 (GLUT1) (chain 1 TGTCTTATCACTTTGGCTGGCTCCC; chain 2 UGUCUUAUCACUUUGGCUGGCUCCC; Antisense strand given in DNA and RNA notation, chemistry not given here; one strand in two spellings) | + (inhibits by at least 50%) | − (<50% mRNA knockdown) | − (<50% mRNA knockdown) | 
5 | SEQ ID NO: 4893: siRNA targeting SLC2A1 (GLUT1) (chain 1 TTCATCATCAGCATTGAATTCCGCC; chain 2 UUCAUCAUCAGCAUUGAAUUCCGCC; Antisense strand given in DNA and RNA notation, chemistry not given here; one strand in two spellings) | ++ (inhibits by at least 75%) | − (<50% mRNA knockdown) | − (<50% mRNA knockdown) | 
6 | SEQ ID NO: 4894: siRNA targeting SLC2A1 (GLUT1) (chain 1 TGACACTTCACCCACATACATGGGC; chain 2 UGACACUUCACCCACAUACAUGGGC; Antisense strand given in DNA and RNA notation, chemistry not given here; one strand in two spellings) | − (no growth inhibition) | − (<50% mRNA knockdown) | ++ (70-90% mRNA knockdown) | 
7 | SEQ ID NO: 4895: siRNA targeting SLC2A5 (GLUT5) (chain 1 ATGTATGGCATCCAGGACACTGTGT; chain 2 AUGUAUGGCAUCCAGGACACUGUGU; Antisense strand given in DNA and RNA notation, chemistry not given here; one strand in two spellings) | − (no growth inhibition) | ++ (70-90% mRNA knockdown) | ++ (70-90% mRNA knockdown) | 
8 | SEQ ID NO: 4896: siRNA targeting SLC2A5 (GLUT5) (chain 1 AAGTCTTCCATGAATTCACCGGTCC; chain 2 AAGUCUUCCAUGAAUUCACCGGUCC; Antisense strand given in DNA and RNA notation, chemistry not given here; one strand in two spellings) | − (no growth inhibition) | − (<50% mRNA knockdown) | − (<50% mRNA knockdown) | 
9 | SEQ ID NO: 4897: siRNA targeting SLC2A5 (GLUT5) (chain 1 TTACAGACCACAGCAACGTCAAGGG; chain 2 UUACAGACCACAGCAACGUCAAGGG; Antisense strand given in DNA and RNA notation, chemistry not given here; one strand in two spellings) | ++ (inhibits by at least 75%) | +++ (>90% mRNA knockdown) | +++ (>90% mRNA knockdown) | 
10 | SEQ ID NO: 4989: siRNA targeting TK1 (chain 1 GCGTGGCTGTCATAGGCATCGACGA; chain 2 GCGUGGCUGUCAUAGGCAUCGACGA; chemistry not given here; one strand in two spellings) |  |  |  | − (no growth inhibition with any siRNA)
11 | SEQ ID NO: 4990: siRNA targeting TK1 (chain 1 GACATCATGGAGTTCTGCGAGGCCA; chain 2 GACAUCAUGGAGUUCUGCGAGGCCA; chemistry not given here; one strand in two spellings) |  |  |  | − (no growth inhibition with any siRNA)
12 | SEQ ID NO: 4991: siRNA targeting TK1 (chain 1 GCACTGGATGGGACCTTCCAGAGGA; chain 2 GCACUGGAUGGGACCUUCCAGAGGA; chemistry not given here; one strand in two spellings) |  |  |  | − (no growth inhibition with any siRNA)
13 | SEQ ID NO: 4992: siRNA targeting TK2 (chain 1 GGGATCGAATATTAACTCCAGAGAA; chain 2 GGGAUCGAAUAUUAACUCCAGAGAA; chemistry not given here; one strand in two spellings) |  |  |  | − (no growth inhibition with any siRNA)
14 | SEQ ID NO: 4993: siRNA targeting TK2 (chain 1 GGAAGACGACATGCCTGGAATTCTT; chain 2 GGAAGACGACAUGCCUGGAAUUCUU; chemistry not given here; one strand in two spellings) |  |  |  | − (no growth inhibition with any siRNA)
15 | SEQ ID NO: 4994: siRNA targeting TK2 (chain 1 CCTGAGACTTGTTACCAGAGGTTAA; chain 2 CCUGAGACUUGUUACCAGAGGUUAA; chemistry not given here; one strand in two spellings) |  |  |  | − (no growth inhibition with any siRNA)
16 | SEQ ID NO: 4995: siRNA targeting DGUOK (chain 1 CCTCATGAGAGAGGTAAACACCTTT; chain 2 CCUCAUGAGAGAGGUAAACACCUUU; chemistry not given here; one strand in two spellings) |  |  |  | − (no growth inhibition with any siRNA)
17 | SEQ ID NO: 4996: siRNA targeting DGUOK (chain 1 CCTGCACTGCCCAAAGTCTTGGAAA; chain 2 CCUGCACUGCCCAAAGUCUUGGAAA; chemistry not given here; one strand in two spellings) |  |  |  | − (no growth inhibition with any siRNA)
18 | SEQ ID NO: 4997: siRNA targeting DGUOK (chain 1 GCCAGGAAGCCAGTACAGATCTTTG; chain 2 GCCAGGAAGCCAGUACAGAUCUUUG; chemistry not given here; one strand in two spellings) |  |  |  | + (inhibits by at least 50%)
19 | SEQ ID NO: 4998: siRNA targeting UMPS (chain 1 GAGTTGTGAAAGGCCTGCAAGAAGT; chain 2 GAGUUGUGAAAGGCCUGCAAGAAGU; chemistry not given here; one strand in two spellings) |  |  |  | − (no growth inhibition with any siRNA)
20 | SEQ ID NO: 4999: siRNA targeting UMPS (chain 1 TGGAAACTGTTGAGGTTCTTCAGAA; chain 2 UGGAAACUGUUGAGGUUCUUCAGAA; chemistry not given here; one strand in two spellings) |  |  |  | + (inhibits by at least 50%)
21 | SEQ ID NO: 5000: siRNA targeting UMPS (chain 1 GCTGTTGCAGCTAGCAGATGCTTTA; chain 2 GCUGUUGCAGCUAGCAGAUGCUUUA; chemistry not given here; one strand in two spellings) |  |  |  | − (no growth inhibition with any siRNA)
22 | SEQ ID NO: 5001: siRNA targeting DPYD (chain 1 GCTAGCATTATGTGCAGTTACAATA; chain 2 GCUAGCAUUAUGUGCAGUUACAAUA; chemistry not given here; one strand in two spellings) |  |  |  | − (no growth inhibition with any siRNA)
23 | SEQ ID NO: 5002: siRNA targeting DPYD (chain 1 GCCACTGAAGAGGGACCCATTAATA; chain 2 GCCACUGAAGAGGGACCCAUUAAUA; chemistry not given here; one strand in two spellings) |  |  |  | − (no growth inhibition with any siRNA)
24 | SEQ ID NO: 5003: siRNA targeting DPYD (chain 1 GGCTACAAAGCTGCTTTCATTGGAA; chain 2 GGCUACAAAGCUGCUUUCAUUGGAA; chemistry not given here; one strand in two spellings) |  |  |  | − (no growth inhibition with any siRNA)

— US20080145313A1, “Compositions and Methods for the Treatment and Prevention of Neoplastic Disorders” (Genesis Research & Development Corporation Limited, priority 2006, published 2008)
